Source: patent EP1285920A1, “C10 Ester sustituted taxanes as antitumor agents” (Florida State University Research Foundation, Inc., priority 2001, dated 2003)
Like-named read-outs stand apart in the source and are kept apart here.

Columns and labels:
[1] = system: HCT116; test: In Vitro cytotoxicity measured by the cell colony formation assay; type: cell-based, human; settings: Homo sapiens, HCT-116; read-out: IN VITRO ID 50 HCT116
Procedure, shortened: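 Four hundred cells per dish in McCoy's 5a medium with 10% FBS were allowed to attach for 5 h at 37 °C. They were then exposed to compound for 72 h at 37 °C, added as a 10× stock made fresh in medium. After HBSS rinsing and refeeding, colonies were counted after 7 days.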

[2] = system: HCT116 carcinoma; settings: for Toxic Deaths: mg/kg: Taxol 36 (split doses), 0503 72.6, 0536 49, 0663 159, 0670 123, 0687 159, 0706 108, 0908 159, 0947 76.9, 0951 72.6, 0983 72.6, 0999 49, 1003 49, 1011 108
Experimental: Antitumor compounds were formulated for an i.v. dosing regime and were prepared in the following vehicle: 5% ethanol, 5% Cremophor and 90% isotonic saline.
(§1) The antitumor compounds were given intravenously in a single maximum tolerated dose (MTD) appropriate for each compound. […] The MTDs for the antitumor compounds were calculated from earlier single dose data for mice receiving i.v. administration of these compounds. All vehicle control animals in the split dosing regimes were dosed twice intravenously with half of the total volume being given separated by one hour. The study was terminated on Day 60.
A complete response is obtained if the tumor is not palpable at the end of the study.

[3] = system: MX-1 carcinoma; settings: for treated animals with durable complete responses and partial responses: single i.v. MTD; for Toxic Deaths: mg/kg: Taxol 36 (split dose), 0503 72.6, 0536 49, 0663 159, 0670 123, 0687 159, 0706 108, 0908 159, 0947 76.9, 0951 72.6, 0983 67.4, 0999 49, 1003 49, 1011 108
Experimental: Thirteen antitumor compounds were formulated for an i.v. dosing regime (single i.v. bolus, qd x 1 schedule) prepared in the following vehicle: 5% ethanol, 5% Cremophor and 90% isotonic saline.
as §1, with “half” for “half of”
A complete response is obtained if the tumor is not palpable at the end of the study. […]

[4] = system: A2780 ovarian carcinoma; settings: for MDS: i.v. qd x 1 (compounds estimated MTD; Taxol 24 mg/kg split; Taxotere 70 mg/kg), days until tumor 2.0 g, ended Day 60
Experimental: Dosing was initiated on Day 1. […] Taxotere was given i.v. on a qd x 1 schedule at a dose of 70 mg/kg. […] The study was terminated on Day 60. Treatment groups are detailed in Table 7.

[5] = i.v. qd x 1 at MTD, 5 mice/group, Day 60, doses as in E3
[6] = number of 5 mice, tumor did not reach 2.0 g by end of study, i.v. qd x 1 at MTD, Day 60, doses as in E3
[7] = number of 5 mice, tumor not palpable at end of study, i.v. qd x 1 at MTD, Day 60, doses as in E3
[8] = number of 5 mice, tumor smaller than on Day 1, i.v. qd x 1 at MTD, Day 60, doses as in E3
[9] = number of 5 mice, i.v. qd x 1 at MTD, Day 60, doses as in E3
[10] = number of 5 mice, i.v. qd x 1 at MTD, Day 60
[11] = i.v. qd x 1 at MTD, 6 mice/group, Day 60, doses as in E17
[12] = number of 6 mice, tumor did not reach 2.0 g by end of study, i.v. qd x 1 at MTD, Day 60, doses as in E17
[13] = number of 6 mice, tumor not palpable at end of study, i.v. qd x 1 at MTD, Day 60, doses as in E17
[14] = number of 6 mice, tumor smaller than on Day 1, i.v. qd x 1 at MTD, Day 60, doses as in E17
[15] = number of 6 mice, i.v. qd x 1 at MTD, Day 60, doses as in E17
[16] = number of 6 mice, i.v. qd x 1 at MTD, Day 60
[17] = A2780, i.v. qd x 1, five mice per group
[18] = mean days of survival until neoplasm reached 2.0 g, i.v. qd x 1 at estimated MTD (Taxol 24 mg/kg, Taxotere 70 mg/kg, 0983 72.6 mg/kg), 5 mice/group (Taxotere 6), terminated Day 60
[19] = number of mice, i.v. qd x 1 at estimated MTD (Taxol 24 mg/kg, Taxotere 70 mg/kg, 0983 72.6 mg/kg), 5 mice/group (Taxotere 6)
[20] = number of mice, i.v. qd x 1 at estimated MTD (Taxol 24 mg/kg, Taxotere 70 mg/kg, 0983 72.6 mg/kg), 5 mice/group (Taxotere 6), Day 60
[21] = tumor scoring system, i.v. qd x 1 at estimated MTD (Taxol 24 mg/kg, Taxotere 70 mg/kg, 0983 72.6 mg/kg), 5 mice/group (Taxotere 6)

Structure (SMILES)	IC50 [1] [nM]	Mean Score [2, 5]	Stable Disease [2, 6]	Complete Response [2, 7]	Partial Response [2, 8]	Survivors [2, 9]	Toxic Deaths [2, 10]	Mean Score [3, 11]	Stable Disease [3, 12]	Complete Response [3, 13]	Partial Response [3, 14]	Survivors [3, 15]	Toxic Deaths [3, 16]	survival extension compared to Group 1 controls ([4]; A2780, i.v. qd x 1) [%]	MDS ([4]; A2780) [days]	total response rate [4, 17]	Toxic Deaths [4, 19]	Survivors [4, 20]	Partial Response ([2]; iv)	Complete Response ([2]; iv, 1440 h)	other results
CC(=O)O[C@@]12CO[C@@H]1C[C@H](O)[C@@]1(C)C(=O)[C@H](OC(=O)C3CC3)C3=C(C)[C@@H](OC(=O)[C@H](O)[C@@H](NC(=O)c4ccccc4)c4ccco4)C[C@@](O)([C@@H](OC(=O)c4ccccc4)[C@H]21)C3(C)C [Compound 0908]	< 1	9.2 ± 0.2	0	1	4	5	0	9.7 ± 0.3	0	5	1	6	0	268	43.1	at least 20%	1	2			treated animals with durable complete responses and partial responses ([3]; MX-1): 100%; Toxic Deaths [4, 17]: one; MDS (n) [4, 18]: 43.1 ± 8.0 (2) days; Complete Response [4, 20]: 0; Partial Respons [4, 20]: 1; Stable Disease [4, 20]: 1; Mean Score [4, 21]: 3.8 ± 1.5
CCCC(=O)O[C@H]1C(=O)[C@@]2(C)[C@H]([C@H](OC(=O)c3ccccc3)[C@]3(O)C[C@H](OC(=O)[C@H](O)[C@@H](NC(=O)OC(C)(C)C)c4ccccn4)C(C)=C1C3(C)C)[C@]1(OC(C)=O)CO[C@@H]1C[C@@H]2O [Compound 0951]	< 1	9.6 ± 0.2	0	3	2	5	0	9.5 ± 0.5	0	5	1	6	0	269	43.2						treated animals with durable complete responses and partial responses ([3]; MX-1): 100%; antitumor activity ([4]; A2780, i.v. qd x 1): no tumor shrinkage; Stable Disease [4, 17]: one
CCCC(=O)O[C@H]1C(=O)[C@@]2(C)[C@H]([C@H](OC(=O)c3ccccc3)[C@]3(O)C[C@H](OC(=O)[C@H](O)[C@@H](NC(=O)OC(C)(C)C)c4cccs4)C(C)=C1C3(C)C)[C@]1(OC(C)=O)CO[C@@H]1C[C@@H]2O [Compound 1003]	< 1					5	0					4	0			at least 20%			3	2	Mean Score ([2]; iv, 1440 h): 9.4 ± 0.2; Stable Disease ([2]; iv, 1440 h): 0; Partial Response ([3]; iv): 0; Complete Response ([3]; iv, 1440 h): 4; MDS (n) ([3]; iv, 1440 h): 29.1 ± 10.8 (2) days; Mean Score ([3]; iv, 1440 h): 7.3 ± 1.7; Stable Disease ([3]; iv, 1440 h): 0; partial responses [4, 17]: 2
CCC(=O)O[C@H]1C(=O)[C@@]2(C)[C@H]([C@H](OC(=O)c3ccccc3)[C@]3(O)C[C@H](OC(=O)[C@H](O)[C@@H](NC(=O)c4ccccc4)c4ccco4)C(C)=C1C3(C)C)[C@]1(OC(C)=O)CO[C@@H]1C[C@@H]2O [Compound 0663]	< 1					4	1					5	0	214		at least 20%			2	2	Mean Score ([2]; iv, 1440 h): 7.6 ± 1.9; Stable Disease ([2]; iv, 1440 h): 0; Partial Response ([3]; iv): 0; Complete Response ([3]; iv, 1440 h): 4; Mean Score ([3]; iv, 1440 h): 7.7 ± 1.5; Stable Disease ([3]; iv, 1440 h): 1
CCC(=O)O[C@H]1C(=O)[C@@]2(C)[C@H]([C@H](OC(=O)c3ccccc3)[C@]3(O)C[C@H](OC(=O)[C@H](O)[C@@H](NC(=O)OC(C)(C)C)c4ccco4)C(C)=C1C3(C)C)[C@]1(OC(C)=O)CO[C@@H]1C[C@@H]2O [Compound 0536]	< 1	9.2 ± 0.2	0	1	4	5	0	6.7 ± 2.1	0	4	0	4	2		42.6		0	0			antitumor activity / tumor response ([3]; MX-1, i.v. qd x 1, Day 60): complete and durable tumor regressions in all the treated mice; antitumor activity ([4]; A2780, i.v. qd x 1): did not cause any complete responses, partial responses, or cases of stable disease; MDS (n) [4, 18]: 42.6 ± 3.3 (5) days; Complete Response [4, 20]: 0; Partial Respons [4, 20]: 0; Stable Disease [4, 20]: 0; Mean Score [4, 21]: 3 ± 0
CCCC(=O)O[C@H]1C(=O)[C@@]2(C)[C@H]([C@H](OC(=O)c3ccccc3)[C@]3(O)C[C@H](OC(=O)[C@H](O)[C@@H](NC(=O)OC(C)(C)C)c4ccoc4)C(C)=C1C3(C)C)[C@]1(OC(C)=O)CO[C@@H]1C[C@@H]2O [Compound 0999]	< 1	9.2 ± 0.2	0	1	4	5	0	8.2 ± 1.2	0	4	1	5	0			at least 20%					
CCCC(=O)O[C@H]1C(=O)[C@@]2(C)[C@H]([C@H](OC(=O)c3ccccc3)[C@]3(O)C[C@H](OC(=O)[C@H](O)[C@H](C=C(C)C)NC(=O)OC(C)(C)C)C(C)=C1C3(C)C)[C@]1(OC(C)=O)CO[C@@H]1C[C@@H]2O [Compound 0947]	< 1					5	0					3	2			at least 20%	1	2	4	1	Mean Score ([2]; iv, 1440 h): 9.2 ± 0.2; Stable Disease ([2]; iv, 1440 h): 0; Partial Response ([3]; iv): 0; Complete Response ([3]; iv, 1440 h): 3; Mean Score ([3]; iv, 1440 h): 5.5 ± 2.1; Stable Disease ([3]; iv, 1440 h): 0; partial responses [4, 17]: 2; Mean Score ([4]; iv, 72.6 mg/kg): 4.8 ± 1.8; Complete Response ([4]; iv, 72.6 mg/kg, 1440 h): 0; MDS (n) ([4]; iv, 72.6 mg/kg, 1440 h): 32.7 ± 5.4 (2) days; Partial Respons ([4]; iv, 72.6 mg/kg, 1440 h): 2; Stable Disease ([4]; iv, 72.6 mg/kg, 1440 h): 0
